{"source": "patent US20060025478A1", "about": "“Medicine for prevention or treatment of diabetes” (priority 2004, published 2006)", "test_system": "C57BL/KsJ db/db mice", "experiment": "Hypoglycemic effect of single or combined administration in db/db mice (plasma glucose concentration)", "assay_type": "in vivo, mouse", "settings": "for Decreasing effect for the plasma glucose concentration (in words) / Relative index (mean plasma glucose of group / mean of control group) / Decreasing rate (of plasma glucose concentration vs control group): 14th day; for Decreasing effect for the plasma glucose concentration (in words): compared with db/+m normal mouse (187±16); for Relative index (mean plasma glucose of group / mean of control group) / Decreasing rate (of plasma glucose concentration vs control group) / Plasma glucose concentration: oral once a day for 14 days; for Decreasing rate (of plasma glucose concentration vs control group): (control mean − group mean)/control mean ×100; for Plasma glucose concentration: plasma 2 hours after administration on the 14th day, mean±standard deviation for 6 mice, control group 499 ± 81", "experimental": "As test animals, C57BL/KsJ db/db mice were used, which were created in Jackson Laboratory (USA) and known as an obesity, hyperlipemia, hyperinsulinemia, and insulin-resistant model (Journal of Clinical Investigation, 85, pp 962-967, 1990). Blood was collected from the orbital venous plexus of each 7-week-old db/db mouse using a heparin-treated capillary tube, and centrifugation was performed to collect plasma. Thereafter, the plasma glucose concentration (Glucose CII-Test Wako (Wako Pure Chemical Industries, Ltd.)), the insulin concentration (Lebis Insulin Kit: for mouse-T (SHIBAYAGI)), and the triglyceride concentration (Triglyceride E-Test Wako (Wako Pure Chemical Industries, Ltd.)) were measured for classification. The classification was performed so that distribution of each measurement item is uniform for each group by block allocation based on many variables in which the plasma glucose concentration is most emphasized using the measured values of the plasma glucose concentration, the body weight, the insulin concentration, and the triglyceride concentration. […] Two hours after the administration of the medicines on the 14th day from the beginning day of the administration, blood was collected from the orbital venous plexus, and the plasma thereof was collected to measure the plasma glucose concentration. […] Each plasma glucose concentration is expressed as mean±standard deviation for 6 mice of each group. Each decreasing rate is calculated from ((mean of plasma glucose concentration of control group)−(mean of plasma glucose concentration of each group))/(mean of plasma glucose concentration of control group)×100, while each relative index is calculated from (mean of plasma glucose concentration of each group)/(mean of plasma glucose concentration of control group)", "data": [{"smiles": "CCc1ccc(CCOc2ccc(CC3SC(=O)NC3=O)cc2)nc1.Cl", "note": "(centres unmarked) [Pioglitazone hydrochloride, 5-[4-[2-(5-Ethyl-2-pyridyl)ethoxy]benzyl]thiazolidine-2,4-dione hydrochloride]", "values": [{"measurement": "Decreasing effect for the plasma glucose concentration (in words)", "value": "insufficient"}, {"measurement": "Relative index (mean plasma glucose of group / mean of control group)", "value": 0.80}, {"measurement": "Decreasing rate (of plasma glucose concentration vs control group)", "value": 20, "unit": "%"}, {"measurement": "Plasma glucose concentration", "value": "401 ± 173", "unit": "mg/dL"}]}, {"smiles": "O=C([O-])C(Cl)(Cl)CCCCCCCCCCc1ccc(Cl)cc1.[Na+]", "note": "[sodium 2,2-dichloro-12-(4-chlorophenyl)-dodecanoate]", "values": [{"measurement": "Decreasing effect for the plasma glucose concentration (in words)", "value": "insufficient"}, {"measurement": "Relative index (mean plasma glucose of group / mean of control group)", "value": 0.92}, {"measurement": "Decreasing rate (of plasma glucose concentration vs control group)", "value": 8, "unit": "%"}, {"measurement": "Plasma glucose concentration", "value": "459 ± 77", "unit": "mg/dL"}]}]}
